Laboratory results: patent US20250179051A1, “PYRIMIDINLY-OXY-QUINOLINE BASED HERBICIDAL COMPOUNDS” (SYNGENTA CROP PROTECTION AG, priority 2022, published 2025)

Experiments:
Assay type in all cases: in vivo
Conditions in all cases: 250 g/ha, evaluated after 13 days, five-point scale
[1] = test system: Echinochloa crus-galli (ECHCG); assay: Pre-emergence herbicide glasshouse test
Experimental: (§1) Seeds of a variety of test species are sown in standard soil in pots Amaranthus retoflexus (AMARE), Amaranthus palmeri (AMAPA), Echinochloa crus-galli (ECHCG), Ipomoea hederacea (IPOHE), Setaria faberi (SETFA). After cultivation for one day (pre-emergence) or after 8 days cultivation (post-emergence) under controlled conditions in a glasshouse (at 24/16° C., day/night; 14 hours light; 65% humidity), the plants are sprayed with an aqueous spray solution derived from the formulation of the technical active ingredient in acetone/water (50:50) solution containing 0.5% Tween 20 (polyoxyethelyene sorbitan monolaurate, CAS RN 9005-64-5). Compounds are applied at 250 g/ha unless otherwise stated. The test plants are then grown in a glasshouse under controlled conditions in a glasshouse (at 24/16° C., day/night; 14 hours light; 65% humidity) and watered twice daily. After 13 days for pre and post-emergence, the test is evaluated for the percentage damage caused to the plant. The biological activities are shown in the following table on a five-point scale (5=81-100%; 4=61-80%; 3=41-60%; 2=21-40%; 1=0-20%).

Setaria faberi (SETFA) [2] = assay: Pre-emergence herbicide glasshouse test
Experimental: as §1

[3] = test system: Amaranthus palmeri (AMAPA); assay: Pre-emergence herbicide glasshouse test
Experimental: as §1

[4] = test system: Amaranthus retoflexus (AMARE); assay: Pre-emergence herbicide glasshouse test
Experimental: as §1

[5] = test system: Ipomoea hederacea (IPOHE); assay: Pre-emergence herbicide glasshouse test
Experimental: as §1

[6] = test system: Echinochloa crus-galli (ECHCG); assay: Post-emergence herbicide glasshouse test
Experimental: as §1

Setaria faberi (SETFA) [7] = assay: Post-emergence herbicide glasshouse test
Experimental: as §1

[8] = test system: Amaranthus palmeri (AMAPA); assay: Post-emergence herbicide glasshouse test
Experimental: as §1

[9] = test system: Amaranthus retoflexus (AMARE); assay: Post-emergence herbicide glasshouse test
Experimental: as §1

[10] = test system: Ipomoea hederacea (IPOHE); assay: Post-emergence herbicide glasshouse test
Experimental: as §1

Row | Structure (SMILES) | percentage damage caused to the plant, ECHCG [1] | percentage damage caused to the plant, SETFA (Setaria faberi (SETFA) [2]) | percentage damage caused to the plant, AMAPA [3] | percentage damage caused to the plant, AMARE [4] | percentage damage caused to the plant, IPOHE [5] | percentage damage caused to the plant, ECHCG [6] | percentage damage caused to the plant, SETFA (Setaria faberi (SETFA) [7]) | percentage damage caused to the plant, AMAPA [8] | percentage damage caused to the plant, AMARE [9] | percentage damage caused to the plant, IPOHE [10]
1 | CC(Br)c1nc(C(F)(F)F)nc2cccc(Oc3ncc(Cl)cn3)c12 (stereo not drawn) [Compound 1.001, 4-(1-bromoethyl)-5-(5-chloropyrimidin-2-yl)oxy-2-(trifluoromethyl)quinazoline] | 1 (1=0-20%) | 2 (2=21-40%) | 3 (3=41-60%) | 2 (2=21-40%) | 1 (1=0-20%) | 1 (1=0-20%) | 1 (1=0-20%) | 3 (3=41-60%) | 3 (3=41-60%) | 3 (3=41-60%)
2 | CC(=NOCC1CC1)c1nc(C(F)(F)F)nc2cccc(Oc3ncc(Cl)cn3)c12 [Compound 1.003] | 1 (1=0-20%) | 1 (1=0-20%) | 1 (1=0-20%) | 1 (1=0-20%) | 1 (1=0-20%) | 1 (1=0-20%) | 1 (1=0-20%) | 1 (1=0-20%) | 1 (1=0-20%) | 1 (1=0-20%)
3 | FC(F)(F)c1nc(CCC=NOCC2CC2)c2c(Oc3ncc(Cl)cn3)cccc2n1 [Compound 1.005] | 4 (4=61-80%) | 5 (5=81-100%) | 5 (5=81-100%) | 3 (3=41-60%) | 1 (1=0-20%) | 4 (4=61-80%) | 4 (4=61-80%) | 5 (5=81-100%) | 4 (4=61-80%) | 2 (2=21-40%)
4 | CCON=CCc1nc(C(F)(F)F)nc2cccc(Oc3ncc(Cl)cn3)c12 [Compound 1.006] | 1 (1=0-20%) | 1 (1=0-20%) | 3 (3=41-60%) | 1 (1=0-20%) | 1 (1=0-20%) | 1 (1=0-20%) | 1 (1=0-20%) | 2 (2=21-40%) | 3 (3=41-60%) | 1 (1=0-20%)
5 | CON=CCc1nc(C(F)(F)F)nc2cccc(Oc3ncc(Cl)cn3)c12 [Compound 1.007] | 1 (1=0-20%) | 1 (1=0-20%) | 1 (1=0-20%) | 1 (1=0-20%) | 1 (1=0-20%) | 1 (1=0-20%) | 1 (1=0-20%) | 2 (2=21-40%) | 2 (2=21-40%) | 1 (1=0-20%)
6 | FC(F)(F)c1nc(CC=NOCC2CC2)c2c(Oc3ncc(Cl)cn3)cccc2n1 [Compound 1.008, 2-[5-(5-chloropyrimidin-2-yl)oxy-2-(trifluoromethyl)quinazolin-4-yl]-N-(cyclopropylmethoxy) ethanimine] | 1 (1=0-20%) | 1 (1=0-20%) | 2 (2=21-40%) | 1 (1=0-20%) | 1 (1=0-20%) | 2 (2=21-40%) | 1 (1=0-20%) | 4 (4=61-80%) | 4 (4=61-80%) | 1 (1=0-20%)
7 | CCO/N=C/CCc1nc(C(F)(F)F)nc2cccc(Oc3ncc(Cl)cn3)c12 [Compound 1.009] | 5 (5=81-100%) | 5 (5=81-100%) | 5 (5=81-100%) | 5 (5=81-100%) | 1 (1=0-20%) | 5 (5=81-100%) | 5 (5=81-100%) | 5 (5=81-100%) | 5 (5=81-100%) | 5 (5=81-100%)
8 | CN(C)/C=C/c1nc(C(F)(F)F)nc2cccc(Oc3ncc(Cl)cn3)c12 [Compound 1.010, 2-[5-(5-chloropyrimidin-2-yl)oxy-2-(trifluoromethyl)quinazolin-4-yl]-N,N-dimethyl-ethenamine] | 1 (1=0-20%) | 1 (1=0-20%) | 2 (2=21-40%) | 2 (2=21-40%) | 1 (1=0-20%) | 1 (1=0-20%) | 1 (1=0-20%) | 3 (3=41-60%) | 3 (3=41-60%) | 1 (1=0-20%)
9 | Fc1ccc(-c2nc(C(F)(F)F)nc3cccc(Oc4ncc(Cl)cc4F)c23)cc1 [Compound 1.040] | 1 (1=0-20%) | 1 (1=0-20%) | – | 1 (1=0-20%) | 1 (1=0-20%) | 1 (1=0-20%) | 1 (1=0-20%) | – | 2 (2=21-40%) | 2 (2=21-40%)
10 | Fc1ccc(-c2nc(C(F)(F)F)nc3cccc(Oc4ncc(Cl)cn4)c23)cc1 [Compound 1.042] | 1 (1=0-20%) | 1 (1=0-20%) | – | 1 (1=0-20%) | 1 (1=0-20%) | 1 (1=0-20%) | 1 (1=0-20%) | – | 3 (3=41-60%) | 3 (3=41-60%)
11 | C=CCCc1nc(C(F)(F)F)nc2cccc(Oc3ncc(Cl)cn3)c12 [Compound 1.043, 4-but-3-enyl-5-(5-chloropyrimidin-2-yl)oxy-2-(trifluoromethyl)quinazoline] | 5 (5=81-100%) | 5 (5=81-100%) | – | 4 (4=61-80%) | 1 (1=0-20%) | 4 (4=61-80%) | 4 (4=61-80%) | – | 5 (5=81-100%) | 3 (3=41-60%)
12 | FC(F)(F)c1nc(CCC2CCOCC2)c2c(Oc3ncc(Cl)cn3)cccc2n1 [Compound 1.044] | 5 (5=81-100%) | 5 (5=81-100%) | – | 5 (5=81-100%) | 5 (5=81-100%) | 5 (5=81-100%) | 5 (5=81-100%) | – | 5 (5=81-100%) | 4 (4=61-80%)
13 | N#CCCc1nc(C(F)(F)F)nc2cccc(Oc3ncc(Cl)cn3)c12 [Compound 1.046, 3-[5-(5-chloropyrimidin-2-yl)oxy-2-(trifluoromethyl)quinazolin-4-yl]propanenitrile] | 5 (5=81-100%) | 5 (5=81-100%) | 5 (5=81-100%) | 5 (5=81-100%) | 5 (5=81-100%) | 2 (2=21-40%) | 2 (2=21-40%) | 5 (5=81-100%) | – | 4 (4=61-80%)
14 | Fc1cnc(Oc2cccc3nc(C(F)(F)F)nc(CCC4CC4)c23)nc1 [Compound 1.064] | 4 (4=61-80%) | – | 5 (5=81-100%) | 5 (5=81-100%) | 5 (5=81-100%) | 4 (4=61-80%) | – | 4 (4=61-80%) | 5 (5=81-100%) | 4 (4=61-80%)
